Values joined by “and” are separate entries in the source; they are usually repeats but may differ in a detail not shown here. Equal values may be shown once. “Also recorded” adds a separate entry of the source. Read-outs that look alike come from different tables or passages of the source.
Assays:
[1] = test system: Dysplastic oral keratinocyte (DOK) cells; assay: MTT growth inhibition (IC50) in DOK cells; type: cell-based; conditions: MTT assay; for IC50: read-out: IC50 concentration
From the text: • 1. Animal care and treatment. […] Combination index (CI) and isoborogram. […] Pharmaceutical formulation. […] LC-MS/MS.

[2] = Stability of OXP in solutions; type: physicochemical
From the text: These chloride derivatives of OXP are not detectable by current available assays.

[3] = In vivo active ingredient release: tongue tissue and plasma amounts in healthy rats; design: species or system rat
Procedure: The instant example analyzes exemplary pharmaceutical formulations applied to the tongue of healthy rats for different time periods up to 4 hours. Concentrations of mycophenolic acid and oxaliplatin in tongue tissues were measured at the corresponding times and up to 12 hours from the beginning of the formulation application in rats. The following are groups of rats that were studied: • Group #1: Formulation applied for 0.5 hour and rat tongues were harvested for drug analysis. N=8 rats. • Group #2: Formulation applied for 1 hour and rat tongues were harvested for drug analysis. N=13 rats. • Group #3: Formulation applied for 2 hours and rat tongues were harvested for drug analysis. N=13 rats. • Group #4: Formulation applied for 3 hours and rat tongues were harvested for drug analysis. N=12 rats. • Group #5: Formulation applied for 4 hours and rat tongues were harvested for drug analysis. N=6 rats. • Group #6: Formulation applied for 4 hours and removed from the rat. At 8 hours after the start of the Formulation application, rat tongues were harvested for drug analysis. N=7 rats. • Group #7: Formulation applied for 4 hours and removed from the rat. At 12 hours after the start of the Formulation application, rat tongues were harvested for drug analysis. N=9 rats.
• 1. Animal care and treatment. […] Combination index (CI) and isoborogram. […] Pharmaceutical formulation.

[4] = Plasma concentrations before the fifth dose in 4NQO-treated rats; type: in vivo, rat

For `O=c1[nH]cc(F)c(=O)[nH]1` [5-FU], the IC50 concentration [1] was 3.33 µg/mL.
With `O=C1[O][Pt]2([NH][C@@H]3CCCC[C@H]3[NH]2)[O]C1=O` (relative stereo) [OXP, [SP-4-2-(1R-trans)]-(1,2-cyclohexanediamine-N,N′)[ethanedioato(2-)-O,O′]platinum] the “stability of OXP in chloride-containing solutions” value ([2]; NaCl (0.9%, 3%), KCl (3%)) was “converted by chloride in a time and concentration-dependent manner”, the “stability of OXP in NaPi, glucose, or H2O solutions and solutions containing the bioadhesive material components” value ([2]; NaPi 0.2M, glucose 5%, H2O, PAA, DOPA, CMC) was “remains stable” and the IC50 [1] was 1670 nM. The “oxaliplatin in rat tongue as % of the formulation active ingredient load” value ([3]; 0.5-hour formulation application group) was “about 21%”, the oxaliplatin in plasma ([3]; any groups) was “no detectable oxaliplatin in plasma” and the “Plasma concentration of oxaliplatin immediately before the fifth dose application” value ([4]; 4NQO induced rats, daily 2-hours supra-lingual formulation (9,040 ng MPS, 680 ng OXP)) was “not detectible”. For the same compound, the “Plasma concentration of oxaliplatin immediately before the fifth dose application” value ([4]; 4NQO induced rats, daily 2-hours supra-lingual formulation (9,040 ng MPS, 680 ng OXP), listed as oxaliplatin) was “No detectable levels; also recorded: Not detectible (ND)”.
With `COc1c(C)c2c(c(O)c1C/C=C(\C)CCC(=O)O)C(=O)OC2` [MPS, mycophenolate] the “MPS detected in rat tongue as % of the formulation drug load” value ([3]; 0.5 hour supra-lingual application) was “about 55%”, the “plasma MPS concentrations” value ([3]; all groups) was “less than 10 ng/mL” and the concentration at 8 h ([3]; male, Sprague-Dawley, rat, plasma, healthy rats, applied 4 hours, sampled 4 hours after removal (8 hours from beginning), mean ± SD) was 6.5 ± 1.3 ng/mL. For the same compound, the concentration at 12 h ([3]; male, Sprague-Dawley, rat, plasma, healthy rats, applied 4 hours, sampled 8 hours after removal (12 hours from beginning), mean ± SD) was 4.26 ± 0.71 ng/mL, the concentration at 1 h ([3]; male, Sprague-Dawley, rat, plasma, healthy rats, supra-lingual formulation, 1 hour of application, mean ± SD) was 0.96 ± 0.26 ng/mL and the concentration at 2 h ([3]; male, Sprague-Dawley, rat, plasma, healthy rats, supra-lingual formulation, 2 hours of application, mean ± SD) was 2.09 ± 0.76 ng/mL. For the same compound, the concentration at 3 h ([3]; male, Sprague-Dawley, rat, plasma, healthy rats, supra-lingual formulation, 3 hours of application, mean ± SD) was 2.76 ± 0.68 ng/mL, the concentration at 4 h ([3]; male, Sprague-Dawley, rat, plasma, healthy rats, supra-lingual formulation, 4 hours of application, mean ± SD) was 1.76 ± 0.53 ng/mL and the “Plasma concentration of mycophenolate immediately before the fifth dose application” value ([4]; 4NQO induced rats, daily 2-hours supra-lingual formulation (9,040 ng MPS, 680 ng OXP), individual rats, steady-state trough) was 8.24 ng/mL and 6.84 ng/mL and 3.83 ng/mL and 2.54 ng/mL and 4.82 ng/mL and 2.37 ng/mL and 5.18 ng/mL. For the same compound, the “plasma concentration of MPS right before the placement of the last (fifth) formulation, group value” ([4]; group treated with OXP-MPS formulations, 2 hours × 5 days) was 4.52 (+2.23) ng/ml.
`COc1c(C)c2c(c(O)c1C/C=C(\C)CCC(=O)O)C(=O)OC2` [MPA] showed an IC50 ([1]; Keratinocyte) of 13300 nM.
`CC(=O)O[C@H]1C(=O)[C@@]2(C)[C@H]([C@H](OC(=O)c3ccccc3)[C@]3(O)C[C@H](OC(=O)[C@H](O)[C@@H](NC(=O)c4ccccc4)c4ccccc4)C(C)=C1C3(C)C)[C@]1(OC(C)=O)CO[C@@H]1C[C@@H]2O` [paclitaxel] showed an IC50 ([1]; Keratinocyte) of 0.41 nM.
